# Data as given in patent US20230414609A1, “USES OF ORAI1-SPECIFIC CALCIUM CHANNELS IN TREATMENT OF ORAL CANCER” (New York University, priority 2022, published 2023).
# Entries after “also recorded” stand apart in the source; their conditions may differ.
# Assays:
# [1] = target: T1, TRPV1 (Homo sapiens, UniProt Q8NER1); assay: Stimulation of TRPV1 in HSC-3 cells, cytosolic Ca2+; format: cell-based; settings: TRPV1 agonist, in the presence of Ca2+
# T1 construct: Stimulation of transient receptor channels TRPM7, TRPA1 and TRPV1 in HSC-3 cells; endogenous in cells; host or cells: HSC-3 (human oral squamous cell carcinoma)
# [2] = tested on: SOCE in HSC-3 cells; assay: SOCE ([Ca2+]cyto) after CPA stimulation in HSC-3 cells; format: cell-based, human; settings: in the presence of the blocker
# Method: FIG. 1: (A) Heatmap contrast of average variance stabilizing transformation (VST) of ORAI1, ORAI2 and ORAI3 genes between normal (control: N=3 samples) and tongue cancer patients (N=10 samples). Statistical significance was analyzed using the Benjamini-Hochberg FDR (5%) and fold change of 1.5. Both FDR values and fold change were generated using DESeq2. (B-D) show haematoxylin and eosin (H&E) staining (left) and immunofluorescence staining of ORAI1 (right) in the boxed areas of tongue tissue sections showing normal (B), dysplastic (C) and invasive tumor (D) phenotypes. Nuclear staining by 4′,6-diamidino-2-phenylindole (DAPI) is shown in blue. Scale bar, 200 μm. […] (H) and (J) show qRT-PCR analyses of ORAI1 gene expression by the 2^−ΔΔCT method comparing control (scrambled shRNA) and shORAI1 (ORAI1 KD) HSC-3 cells (H) or CRISPR/Cas9 ORAI1 (ORAI1 KO) (J). (I) and (K) show [Ca^2+]cyto measurements comparing control HSC-3 cells compared to shORAI1 (ORAI1 KD) (I) or compared to CRISPR/Cas9 ORAI1 (ORAI1 KO) (K) (left). Quantification of SOCE corrected for baseline Ca^2+ levels as Δpeak (F−F0) (right). (L) and (M) show cell proliferation measured using MTS comparing control HSC-3 cells compared to shORAI1 (ORAI1 KD) (L) or compared to CRISPR/Cas9 ORAI1 (ORAI1 KO) (M). […]
# [3] = tested on: SOCE in SCC-9 cells; assay: SOCE ([Ca2+]cyto) after CPA stimulation in SCC-9 cells; format: cell-based, human; settings: in the presence of the blocker
# Description: (§1) To investigate SOCE in oral cancer cells, we first used qRT-PCR analysis to analyze the expression of ORAI1-3 in the human oral squamous cell carcinoma (OSCC) cell lines HSC-3 and SCC-9, in the dysplastic oral keratinocytes DOK cells, and in spontaneously transformed normal keratinocytes HaCaT cells. […] Next, we tested whether these cells had functional SOCE by stimulating them with cyclopiazonic acid (CPA), a reversible blocker of the sarco-endoplasmic reticulum Ca^2+ ATPase (SERCA) pump that passively depletes the ER Ca^2+ stores inducing STIM1/ORAI1 coupling and SOCE activation ^22,23. […] We also examined the contribution of other channels that have been implicated in Ca^2+ influx in various cancer cells.
# [4] = tested on: HSC-3 cells; assay: Bulk RNA-seq of CPA stimulated HSC-3 cells; format: cell-based, human
# [5] = tested on: HSC-3 cells; assay: Cell proliferation, colorimetric assay MTS; format: cell-based, human
# Method: FIG. 1: (A) Heatmap contrast of average variance stabilizing transformation (VST) of ORAI1, ORAI2 and ORAI3 genes between normal (control: N=3 samples) and tongue cancer patients (N=10 samples). Statistical significance was analyzed using the Benjamini-Hochberg FDR (5%) and fold change of 1.5. Both FDR values and fold change were generated using DESeq2. (B-D) show haematoxylin and eosin (H&E) staining (left) and immunofluorescence staining of ORAI1 (right) in the boxed areas of tongue tissue sections showing normal (B), dysplastic (C) and invasive tumor (D) phenotypes. Nuclear staining by 4′,6-diamidino-2-phenylindole (DAPI) is shown in blue. Scale bar, 200 μm. […] Quantification of SOCE corrected for baseline Ca^2+ levels as Δpeak (F−F0) (right). (L) and (M) show cell proliferation measured using MTS comparing control HSC-3 cells compared to shORAI1 (ORAI1 KD) (L) or compared to CRISPR/Cas9 ORAI1 (ORAI1 KO) (M).
# To address the role of SOCE in key cancer hallmarks such as cell proliferation in oral cancer, we used two independent approaches to eliminate ORAI1 expression in HSC-3 cells. […] To address the effects of ORAI1 in cell proliferation, we analyzed HSC-3 cells in the presence of synta-66 and in which ORAI1 expression had been reduced by shORAI1 or CRISPR/Cas9 editing using the colorimetric assay MTS (FIG. 1, L and M).
# [6] = tested on: MMP1 gene expression in HSC-3 cells; assay: qRT-PCR of MMP1 gene expression in HSC-3 cells; format: cell-based, human
# Method: (D) is a schematic of the Boyden chambers and solutions used to quantify cell invasion. DOK cells overexpressing ORAI1 (O1) and STIM1 (S1) were seeded in the top chamber with 2% FBS. Media in the bottom chamber contained 10% FBS.
# The role of ORAI1 in oral cancer progression was further elucidated by examining the expression of oncogenes in oral cancer, such as MMP1^9,27, as a proof of concept. We first verified the expression of MMP1 in HaCaT, DOK and HSC-3 cells by qRT-PCR analysis. All cells expressed MMP1 in the order oral cancer HSC-3 cells>dysplastic DOK cells>HaCaT cells (FIG. 2A). We next stimulated HSC-3 cells using different concentrations of CPA to examine changes in MMP1 gene expression mediated by SOCE activation. […] These findings were further supported by the decrease in the expression of MMP1 seen in HSC-3 cells with ORAI1 knockdown or deletion. Because in many cells SOCE activation targets the phosphorylation of the transcription factor NFAT (nuclear factor of activated T cells) and its downstream effectors ^28, and because a previous study implicated NFAT in regulating stemness in oral cancer cells ^16, we next interrogated if the transcriptional up-regulation of MMP1 was downstream of NFAT. We first verified the expression of NFAT isoforms (NFAT1-4) in HaCaT, DOK and HSC-3 cells by qRT-PCR analysis showing that NFAT4 (coded by NFATc3) was the most abundant transcript.
# [7] = target: T2, TRPM7 (Homo sapiens, UniProt Q96QT4); assay: Stimulation of TRPM7 in HSC-3 cells, cytosolic Ca2+; format: cell-based; settings: TRPM7 agonist, in the presence of Ca2+
# T2 construct: Stimulation of transient receptor channels TRPM7, TRPA1 and TRPV1 in HSC-3 cells; endogenous in cells; host or cells: HSC-3 (human oral squamous cell carcinoma)
# Description: as §1
# T2 sequence (Q96QT4 whole entry): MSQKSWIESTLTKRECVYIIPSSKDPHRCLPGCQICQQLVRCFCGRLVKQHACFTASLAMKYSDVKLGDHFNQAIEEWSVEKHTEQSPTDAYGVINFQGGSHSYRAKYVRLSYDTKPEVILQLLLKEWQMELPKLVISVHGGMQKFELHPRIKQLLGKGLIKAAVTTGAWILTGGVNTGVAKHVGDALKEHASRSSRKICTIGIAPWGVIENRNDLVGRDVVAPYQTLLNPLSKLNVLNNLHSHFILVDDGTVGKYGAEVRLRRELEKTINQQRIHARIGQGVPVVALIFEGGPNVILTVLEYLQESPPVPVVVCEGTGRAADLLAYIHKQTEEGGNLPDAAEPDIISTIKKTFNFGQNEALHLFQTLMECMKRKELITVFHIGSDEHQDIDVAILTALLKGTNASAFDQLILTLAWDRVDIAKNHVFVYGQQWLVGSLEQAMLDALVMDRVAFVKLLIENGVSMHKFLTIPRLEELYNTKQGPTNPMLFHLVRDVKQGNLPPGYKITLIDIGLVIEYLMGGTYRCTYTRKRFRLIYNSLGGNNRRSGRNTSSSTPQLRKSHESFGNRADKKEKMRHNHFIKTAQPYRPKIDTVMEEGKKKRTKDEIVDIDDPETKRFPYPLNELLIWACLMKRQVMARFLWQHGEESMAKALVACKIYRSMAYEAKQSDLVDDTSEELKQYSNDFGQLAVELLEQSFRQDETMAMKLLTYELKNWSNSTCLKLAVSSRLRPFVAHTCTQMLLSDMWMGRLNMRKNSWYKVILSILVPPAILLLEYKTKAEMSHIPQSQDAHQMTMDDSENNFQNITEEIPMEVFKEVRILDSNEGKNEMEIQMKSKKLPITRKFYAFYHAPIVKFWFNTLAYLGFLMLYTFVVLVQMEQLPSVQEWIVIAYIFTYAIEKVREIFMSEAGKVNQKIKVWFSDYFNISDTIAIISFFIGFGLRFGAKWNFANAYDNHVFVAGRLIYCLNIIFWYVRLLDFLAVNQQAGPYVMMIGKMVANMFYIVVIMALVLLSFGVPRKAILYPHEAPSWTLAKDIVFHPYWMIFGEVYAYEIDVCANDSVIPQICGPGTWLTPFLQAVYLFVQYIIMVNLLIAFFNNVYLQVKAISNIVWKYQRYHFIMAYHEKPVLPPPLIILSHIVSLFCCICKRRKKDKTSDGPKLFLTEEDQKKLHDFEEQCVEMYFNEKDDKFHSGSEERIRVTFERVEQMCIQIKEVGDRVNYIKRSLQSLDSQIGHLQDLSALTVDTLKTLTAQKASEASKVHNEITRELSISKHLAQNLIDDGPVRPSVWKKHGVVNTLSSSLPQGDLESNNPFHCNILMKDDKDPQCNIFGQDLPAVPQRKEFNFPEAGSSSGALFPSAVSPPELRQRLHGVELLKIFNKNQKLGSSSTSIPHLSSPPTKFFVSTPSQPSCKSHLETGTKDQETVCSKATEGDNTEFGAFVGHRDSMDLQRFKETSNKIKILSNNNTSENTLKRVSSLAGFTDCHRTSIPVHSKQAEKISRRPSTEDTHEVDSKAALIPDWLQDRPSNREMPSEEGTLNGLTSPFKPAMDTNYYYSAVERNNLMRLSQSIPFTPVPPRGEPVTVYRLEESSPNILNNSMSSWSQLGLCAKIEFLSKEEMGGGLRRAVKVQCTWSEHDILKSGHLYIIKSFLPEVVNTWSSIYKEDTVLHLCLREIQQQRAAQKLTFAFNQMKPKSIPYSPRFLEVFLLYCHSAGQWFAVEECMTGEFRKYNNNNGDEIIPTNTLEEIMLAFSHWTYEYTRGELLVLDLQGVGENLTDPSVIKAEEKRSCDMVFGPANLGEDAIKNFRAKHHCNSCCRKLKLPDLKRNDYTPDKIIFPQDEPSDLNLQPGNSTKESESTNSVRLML
# T1 sequence (Q8NER1 whole entry): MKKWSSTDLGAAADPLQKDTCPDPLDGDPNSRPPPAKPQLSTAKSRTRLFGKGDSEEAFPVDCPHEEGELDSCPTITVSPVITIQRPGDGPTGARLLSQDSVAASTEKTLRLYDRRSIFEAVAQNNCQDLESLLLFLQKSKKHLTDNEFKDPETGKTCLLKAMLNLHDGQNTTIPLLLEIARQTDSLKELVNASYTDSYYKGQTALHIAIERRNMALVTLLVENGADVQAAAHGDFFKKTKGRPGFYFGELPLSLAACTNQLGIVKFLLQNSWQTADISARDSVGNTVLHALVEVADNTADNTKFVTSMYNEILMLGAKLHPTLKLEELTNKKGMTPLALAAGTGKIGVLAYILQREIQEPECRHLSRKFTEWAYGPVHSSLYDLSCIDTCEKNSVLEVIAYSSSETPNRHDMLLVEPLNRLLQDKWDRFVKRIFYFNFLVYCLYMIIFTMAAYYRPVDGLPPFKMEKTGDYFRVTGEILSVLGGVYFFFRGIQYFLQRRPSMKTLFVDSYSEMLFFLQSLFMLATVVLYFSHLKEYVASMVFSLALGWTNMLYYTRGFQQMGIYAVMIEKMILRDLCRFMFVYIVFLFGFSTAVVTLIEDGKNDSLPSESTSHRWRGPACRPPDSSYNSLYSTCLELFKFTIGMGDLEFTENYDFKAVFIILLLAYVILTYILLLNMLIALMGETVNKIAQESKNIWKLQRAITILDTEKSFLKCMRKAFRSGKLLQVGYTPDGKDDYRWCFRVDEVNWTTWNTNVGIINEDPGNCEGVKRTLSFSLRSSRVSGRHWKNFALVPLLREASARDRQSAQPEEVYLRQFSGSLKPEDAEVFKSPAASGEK
structure (smiles),measurement,setting,value
COc1cc(CNC(=O)CCCC/C=C/C(C)C)ccc1O [capsaicin],increase in cytosolic Ca2+,[1],failed to evoke an increase
COc1ccc(OC)c(-c2ccc(NC(=O)c3ccncc3F)cc2)c1 [synta-66],SOCE,[2],significantly reduced; also recorded: abolished
same,SOCE,[3],significantly reduced
same,"mRNA level of pain modulators (VEGF-A, B and C, NGF, TLR2, PTGS2)",[4],down-regulated
same,number of MMP genes significantly down-regulated,"[4]; out of >21 genes in the MMP family, FDR<0.05",8
same,proliferation compared to control cells,[5],significantly decreased
same,effect on the CPA-elicited increase in MMP1 gene expression,[6]; HSC-3 cells stimulated with CPA,attenuated the increase
"CC(=O)C1=C(O)[C@@H]2[C@H]3c4c[nH]c5cccc(c45)C[C@H]3C(C)(C)N2C1=O [CPA, cyclopiazonic acid]",time of maximal effect on MMP1 gene expression,"[6]; HSC-3 cells, CPA stimulation",3 h
Oc1ccc2c3c1O[C@H]1c4oc5ccccc5c4C[C@@]4(O)[C@@H](C2)N(CC2CC2)CC[C@]314 [naltriben],increase in cytosolic Ca2+,[7],failed to evoke an increase
